This is an account of results in US10738056B2 (Aduro BioTech, Inc., priority 2017, dated 2020).

Test [1] has as its target Human cGAS amino acids 155-522 (Homo sapiens (Human), UniProt Q8N884). Description: cGAS biochemical activity assay (ATP remaining, Kinase-Glo Max luminescence). The note with it: human cGAS 155-522, ATP remaining (Kinase-Glo Max); read-out: cGAS IC50. For orientation: Kinase-Glo measures the ATP left after a reaction by luminescence.
Test [2] has as its system cGAS/STING pathway in THP1 cells. Briefly: THP1 cell-based cGAS/STING pathway activity assay (IRF-3-linked luciferase reporter). The settings on record: Homo sapiens, THP-1. In short, it runs like this:
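THP1 cells carrying an IRF-3-driven luciferase reporter were read across a range of compound concentrations, and IC50 values were derived from these concentration responses; the assay upper limit was 100 μM.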

pIC50: −log10 of the molar value.

Chain of Human cGAS amino acids 155-522 (Q8N884 157-522): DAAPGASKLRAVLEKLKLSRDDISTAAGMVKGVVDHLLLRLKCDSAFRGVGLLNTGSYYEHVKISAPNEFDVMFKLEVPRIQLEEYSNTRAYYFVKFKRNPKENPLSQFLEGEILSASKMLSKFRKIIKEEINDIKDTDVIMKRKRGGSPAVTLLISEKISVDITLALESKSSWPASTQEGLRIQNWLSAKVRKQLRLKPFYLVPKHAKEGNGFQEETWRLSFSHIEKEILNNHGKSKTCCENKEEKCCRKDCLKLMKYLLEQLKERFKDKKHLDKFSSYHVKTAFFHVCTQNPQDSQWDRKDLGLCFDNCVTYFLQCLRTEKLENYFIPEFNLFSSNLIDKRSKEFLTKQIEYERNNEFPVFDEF

Broadly, the pIC50 is −log10 of the IC50, conventionally taken in molar units. Take `COC(=O)[C@@H]1COC(c2c(C)[nH]c3c(-c4ccccc4)c(C(F)(F)F)nn3c2=O)=N1` [Compound C1187, methyl (S)-2-(5-methyl-7-oxo-3-phenyl-2-(trifluoromethyl)-4,7-dihydropyrazolo[1,5-a]pyrimidin-6-yl)-4,5-dihydrooxazole-4-carboxylate]: the pIC50 was greater than 4.70 in test [1] and less than 4.00 in test [2].

For `CCc1cccc2oc(-c3c(C)[nH]c4c(-c5ccccc5)c(C#N)nn4c3=O)nc12` [Compound C1188, 6-(4-ethylbenzo[d]oxazol-2-yl)-5-methyl-7-oxo-3-phenyl-4,7-dihydropyrazolo[1,5-a]pyrimidine-2-carbonitrile], the negative-log IC50 (pIC50) in test [1] and in test [2] was greater than 4.70 in each case.

On to `Cc1[nH]c2c(-c3ccccc3)c(C#N)nn2c(=O)c1-c1nc2ccc(N)cc2o1` [Compound C1193, 6-(6-aminobenzo[d]oxazol-2-yl)-5-methyl-7-oxo-3-phenyl-4,7-dihydropyrazolo[1,5-a]pyrimidine-2-carbonitrile], for which the pIC50 in test [1] is greater than 4.70; in test [2] it was less than 4.00.

As to `COc1cccc2oc(-c3c(C(=O)NC4CCOCC4)[nH]c4c(-c5ccccc5)c(C(F)(F)F)nn4c3=O)nc12` [Compound C1194, 6-(4-methoxybenzo[d]oxazol-2-yl)-7-oxo-3-phenyl-N-(tetrahydro-2H-pyran-4-yl)-2-(trifluoromethyl)-4,7-dihydropyrazolo[1,5-a]pyrimidine-5-carboxamide], the negative-log IC50 (pIC50) is greater than 4.70 in test [1] and less than 4.00 in test [2].

Turning to `COc1cccc2oc(-c3c(C(=O)NCC(=O)O)[nH]c4c(-c5ccccc5)c(C(F)(F)F)nn4c3=O)nc12` [Compound C1195, (6-(4-methoxybenzo[d]oxazol-2-yl)-7-oxo-3-phenyl-2-(trifluoromethyl)-4,7-dihydropyrazolo[1,5-a]pyrimidine-5-carbonyl)glycine], the pIC50 is greater than 4.70 in test [1] and less than 4.00 in test [2].

Consider `COc1cc(N)c(Cl)c2oc(-c3c(C)[nH]c4c(-c5ccccc5)c(C#N)nn4c3=O)nc12` [Compound C1202, 6-(6-amino-7-chloro-4-methoxybenzo[d]oxazol-2-yl)-5-methyl-7-oxo-3-phenyl-4,7-dihydropyrazolo[1,5-a]pyrimidine-2-carbonitrile], for which the pIC50 is greater than 4.70 in test [1] and 4.00 to 4.70 in test [2].

Regarding `COc1cc(CO)cc2oc(-c3c(C)[nH]c4c(-c5ccccc5)c(C#N)nn4c3=O)nc12` [Compound C1203, 6-(6-(hydroxymethyl)-4-methoxybenzo[d]oxazol-2-yl)-5-methyl-7-oxo-3-phenyl-4,7-dihydropyrazolo[1,5-a]pyrimidine-2-carbonitrile], the negative logarithm of the IC50 (pIC50) in test [1] is greater than 4.70; in test [2] it was less than 4.00.

On to `CSc1cccc2oc(-c3c(C)[nH]c4c(-c5ccccc5)c(C#N)nn4c3=O)nc12` [Compound C1204, 5-methyl-6-(4-(methylthio)benzo[d]oxazol-2-yl)-7-oxo-3-phenyl-4,7-dihydropyrazolo[1,5-a]pyrimidine-2-carbonitrile], for which the pIC50 was greater than 4.70 in test [1] and less than 4.00 in test [2].

In the case of `COc1c(Cl)ccc2oc(-c3c(C)[nH]c4c(-c5ccccc5)c(C#N)nn4c3=O)nc12` [Compound C1206, 6-(5-chloro-4-methoxybenzo[d]oxazol-2-yl)-5-methyl-7-oxo-3-phenyl-4,7-dihydropyrazolo[1,5-a]pyrimidine-2-carbonitrile], the pIC50 was greater than 4.70 in test [1] and less than 4.00 in test [2].

For `COc1cccc2oc(-c3c(C(=O)NCC(O)C(F)(F)F)[nH]c4c(-c5ccccc5)c(C(F)(F)F)nn4c3=O)nc12` (stereo not shown) [Compound C1209, 6-(4-methoxybenzo[d]oxazol-2-yl)-7-oxo-3-phenyl-N-(3,3,3-trifluoro-2-hydroxypropyl)-2-(trifluoromethyl)-4,7-dihydropyrazolo[1,5-a]pyrimidine-5-carboxamide], the pIC50 in test [1] is greater than 4.70; in test [2], less than 4.00.

With `C#Cc1nn2c(=O)c(-c3nc4c(OC)cccc4o3)c(C)[nH]c2c1-c1ccccc1` [Compound C1211, 2-ethynyl-6-(4-methoxybenzo[d]oxazol-2-yl)-5-methyl-3-phenylpyrazolo[1,5-a]pyrimidin-7(4H)-one], the values for the negative-log IC50 (pIC50) in test [1] and in test [2] were greater than 4.70 and less than 4.00, respectively.

Turning to `Cc1[nH]c2c(-c3ccccc3)c(C(F)(F)F)nn2c(=O)c1C1=N[C@@H](C(=O)O)[C@H](C)O1` [Compound C1213, (4R,5S)-5-methyl-2-(5-methyl-7-oxo-3-phenyl-2-(trifluoromethyl)-4,7-dihydropyrazolo[1,5-a]pyrimidin-6-yl)-4,5-dihydrooxazole-4-carboxylic acid], the pIC50 in test [1] was greater than 4.70; in test [2], 4.00 to 4.70.

As to `Cc1[nH]c2c(-c3ccccc3)c(C(F)(F)F)nn2c(=O)c1C1=NC(C(=O)O)[C@H](C)O1` (stereo partly drawn) [Compound C1216, (5S)-5-methyl-2-(5-methyl-7-oxo-3-phenyl-2-(trifluoromethyl)-4,7-dihydropyrazolo[1,5-a]pyrimidin-6-yl)-4,5-dihydrooxazole-4-carboxylic acid], the values for the pIC50 in test [1] and in test [2] were greater than 4.70 and less than 4.00, respectively.

Take `COc1nc(N)cc2oc(-c3c(C)[nH]c4c(-c5ccccc5)c(C#N)nn4c3=O)nc12` [Compound C1218, 6-(6-amino-4-methoxyoxazolo[4,5-c]pyridin-2-yl)-5-methyl-7-oxo-3-phenyl-4,7-dihydropyrazolo[1,5-a]pyrimidine-2-carbonitrile]: the results for the negative-log IC50 (pIC50) in test [1] and in test [2] were greater than 4.70 and less than 4.00, respectively.

On to `COc1cccc2oc(-c3c(C(=O)NCC(C)(C)O)[nH]c4c(-c5ccccc5)c(C(F)(F)F)nn4c3=O)nc12` [Compound C1219, N-(2-hydroxy-2-methylpropyl)-6-(4-methoxybenzo[d]oxazol-2-yl)-7-oxo-3-phenyl-2-(trifluoromethyl)-4,7-dihydropyrazolo[1,5-a]pyrimidine-5-carboxamide], for which the pIC50 in test [1] was greater than 4.70; in test [2], less than 4.00.

As to `Cc1[nH]c2c(-c3ccccc3)c(C#N)nn2c(=O)c1-c1nc2ccccc2o1` [Compound C1222, 6-(benzo[d]oxazol-2-yl)-5-methyl-7-oxo-3-phenyl-4,7-dihydropyrazolo[1,5-a]pyrimidine-2-carbonitrile], the negative logarithm of the IC50 (pIC50) in test [1] was greater than 4.70; in test [2], 4.00 to 4.70.

In the case of `Cc1[nH]c2c(-c3ccccc3)c(C#N)nn2c(=O)c1-c1nc2c(N)cccc2o1` [Compound C1223, 6-(4-aminobenzo[d]oxazol-2-yl)-5-methyl-7-oxo-3-phenyl-4,7-dihydropyrazolo[1,5-a]pyrimidine-2-carbonitrile], the pIC50 in test [1] is greater than 4.70; in test [2] it was 4.00 to 4.70.

For `COc1ccc(CO)c2oc(-c3c(C)[nH]c4c(-c5ccccc5)c(C(F)(F)F)nn4c3=O)nc12` [Compound C1224, 6-(7-(hydroxymethyl)-4-methoxybenzo[d]oxazol-2-yl)-5-methyl-3-phenyl-2-(trifluoromethyl)pyrazolo[1,5-a]pyrimidin-7(4H)-one], the negative logarithm of the IC50 (pIC50) was greater than 4.70 in test [1] and less than 4.00 in test [2].

In the case of `COc1cccc2oc(-c3c(COCCO)[nH]c4c(-c5ccccc5)c(C(F)(F)F)nn4c3=O)nc12` [Compound C1226, 5-((2-hydroxyethoxy)methyl)-6-(4-methoxybenzo[d]oxazol-2-yl)-3-phenyl-2-(trifluoromethyl)pyrazolo[1,5-a]pyrimidin-7(4H)-one], the pIC50 in test [1] was greater than 4.70; in test [2], 4.00 to 4.70.

With `COCc1[nH]c2c(-c3ccccc3)c(C#N)nn2c(=O)c1-c1nc2c(OC)nc(N)cc2o1` [Compound C1227, 6-(6-amino-4-methoxyoxazolo[4,5-c]pyridin-2-yl)-5-(methoxymethyl)-7-oxo-3-phenyl-4,7-dihydropyrazolo[1,5-a]pyrimidine-2-carbonitrile], the negative logarithm of the IC50 (pIC50) in test [1] was greater than 4.70; in test [2], less than 4.00.

Turning to `Cc1[nH]c2c(-c3ccccc3)c(C(F)(F)F)nn2c(=O)c1-c1nc2ccccc2n1-c1ccccc1` [Compound C1229, 5-methyl-3-phenyl-6-(1-phenyl-1H-benzo[d]imidazol-2-yl)-2-(trifluoromethyl)pyrazolo[1,5-a]pyrimidin-7(4H)-one], the negative-log IC50 (pIC50) was 3.60 to 4.70 in test [1] and greater than 4.70 in test [2].

On to `Cc1[nH]c2c(-c3ccccc3)c(C#N)nn2c(=O)c1-c1nc2cccc(N)c2o1` [Compound C1230, 6-(7-aminobenzo[d]oxazol-2-yl)-5-methyl-7-oxo-3-phenyl-4,7-dihydropyrazolo[1,5-a]pyrimidine-2-carbonitrile], for which the figures for the negative logarithm of the IC50 (pIC50) in test [1] and in test [2] were greater than 4.70 and less than 4.00, respectively.

With `Cc1[nH]c2c(-c3ccccc3)c(C(F)(F)F)nn2c(=O)c1-c1nc2ccccc2n1CC(F)(F)F` [Compound C1231, 5-methyl-3-phenyl-6-(1-(2,2,2-trifluoroethyl)-1H-benzo[d]imidazol-2-yl)-2-(trifluoromethyl)pyrazolo[1,5-a]pyrimidin-7(4H)-one], the pIC50 is 3.60 to 4.70 in test [1] and greater than 4.70 in test [2].

As to `COc1cccc2oc(-c3c(COCC(F)F)[nH]c4c(-c5ccccc5)c(C(F)(F)F)nn4c3=O)nc12` [Compound C1232, 5-((2,2-difluoroethoxy)methyl)-6-(4-methoxybenzo[d]oxazol-2-yl)-3-phenyl-2-(trifluoromethyl)pyrazolo[1,5-a]pyrimidin-7(4H)-one], the negative logarithm of the IC50 (pIC50) in test [1] is greater than 4.70; in test [2], 4.00 to 4.70.

As for `COc1cccc2oc(-c3c(C4=CCC(C(=O)O)CC4)[nH]c4c(-c5ccccc5)c(C(F)(F)F)nn4c3=O)nc12` (stereo not shown) [Compound C1234, 4-(6-(4-methoxybenzo[d]oxazol-2-yl)-7-oxo-3-phenyl-2-(trifluoromethyl)-4,7-dihydropyrazolo[1,5-a]pyrimidin-5-yl)cyclohex-3-ene-1-carboxylic acid], the negative-log IC50 (pIC50) was greater than 4.70 in test [1] and less than 4.00 in test [2].

On to `COc1cc(C(C)O)cc2oc(-c3c(C)[nH]c4c(-c5ccccc5)c(C#N)nn4c3=O)nc12` (stereo not shown) [Compound C1240, 6-(6-(1-hydroxyethyl)-4-methoxybenzo[d]oxazol-2-yl)-5-methyl-7-oxo-3-phenyl-4,7-dihydropyrazolo[1,5-a]pyrimidine-2-carbonitrile], for which the negative-log IC50 (pIC50) in test [1] and in test [2] was greater than 4.70 each time.
